# Data reported in US6914045B2, “Glycopeptide antibiotics” (Wyeth Holdings Corporation, priority 2001, dated 2005).
# Assays:
# [1] = test system: Staphylococcus aureus-SMITH (GC 4543); assay: acute lethal infection in mice; format: in vivo; conditions: acute lethal infection, female CD-1 mice, intraperitoneal challenge, intravenous 30 min. after infection, 7 day survival
# Method in brief: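 Intraperitoneal challenge of female CD-1 mice with a bacterial dose lethal to untreated animals within 24-48 hr; single iv treatment 30 min later, 5 mice per dose level. Survival is scored at day 7 and pooled from three experiments to give the median effective dose.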
# [2] = test system: Enterococcus sp.; assay: in vitro antibacterial evaluation, MIC by broth dilution; format: cell-based; conditions: broth dilution, 18 hours at 35° C.; for MIC Enterococcus faecalis (ATCC 29212): strain ATCC 29212; for MIC Enterococcus faecium (GC 2243): strain GC 2243; for MIC Enterococcus faecalis (GC 4552): strain GC 4552; for MIC Enterococcus faecalis (GC 4553): strain GC 4553; for MIC Enterococcus faecalis (GC 4554): strain GC 4554; for MIC Enterococcus faecium (GC 4556): strain GC 4556; for MIC Enterococcus faecium (GC 4557): strain GC 4557; for MIC Enterococcus avium (GC 4558): strain GC 4558; for MIC Enterococcus faecalis (GC 6189): strain GC 6189
# Method in brief: (§1)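 Inoculum 5×10^5 CFU/mL; concentrations 64 to 0.06 μg/mL; MIC defined as lowest inhibitory level. Conducted by broth dilution under NCCLS guidelines.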
# [3] = test system: Escherichia coli; assay: as above; format: cell-based
# Method in brief: as §1
# [4] = test system: Staphylococcus sp.; assay: as above; format: cell-based; conditions: broth dilution, 18 hours at 35° C.; for MIC Staphylococcus aureus (GC 1131): strain GC 1131
# Method in brief: as §1
# [5] = test system: Streptococcus sp.; assay: as above; format: cell-based; conditions: broth dilution, 18 hours at 35° C.
# Method in brief: as §1
smiles,measurement,setting,value
"CC(c1ccccc1)C1NC(=O)CNC(=O)C(CO)NC(=O)C(C(O)C2CNC(=N)N2C2OC(CO)C(O)C(O)C2O)NC(=O)C(C(O)C2CNC(=N)N2)NC(=O)C(Cc2ccc(OC3OC(CO)C(OC4OC5COC(c6cccc(-c7ccccc7)c6)OC5C(O)C4O)C(O)C3O)cc2)NC1=O (stereo not drawn) [Example 154, Cyclo[glycyl-β-methylphenylalanyl-O-[4-O-[4,6-O-(3-phenylbenzylidene)hexopyranosyl]-hexopyranosyl]tyrosyl-3-(2-iminoimidazolidin-4-yl)seryl-3-(3-hexopyranosyl-2-iminoimidazolidin-4-yl)serylseryl]]","median effective dose (ED50), Staphylococcus aureus-SMITH (GC 4543)",[1],0.1 mg/kg
same,MIC Enterococcus faecalis (GC 2242),[2]; Enterococcus faecalis (GC 2242),2 µg/mL
same,MIC Enterococcus faecalis (GC 2691),[2]; Enterococcus faecalis (GC 2691),2 µg/mL
same,MIC Enterococcus faecalis (GC 3059),[2]; Enterococcus faecalis (GC 3059),2 µg/mL
same,MIC Enterococcus faecalis (ATCC 29212),[2]; inoculum 5×10^5 CFU/mL,2 µg/mL
same,MIC Enterococcus faecium (GC 2243),[2]; inoculum 5×10^5 CFU/mL,2 µg/mL
same,MIC Enterococcus faecalis (GC 4552),[2]; inoculum 5×10^5 CFU/mL,2 µg/mL
same,MIC Enterococcus faecalis (GC 4553),[2]; inoculum 5×10^5 CFU/mL,2 µg/mL
same,MIC Enterococcus faecalis (GC 4554),[2]; inoculum 5×10^5 CFU/mL,2 µg/mL
same,MIC Enterococcus faecium (GC 4556),[2]; inoculum 5×10^5 CFU/mL,2 µg/mL
same,MIC Enterococcus faecium (GC 4557),[2]; inoculum 5×10^5 CFU/mL,2 µg/mL
same,MIC Enterococcus avium (GC 4558),[2]; inoculum 5×10^5 CFU/mL,1 µg/mL
same,MIC Enterococcus faecalis (GC 6189),[2]; inoculum 5×10^5 CFU/mL,2 µg/mL
same,MIC Enterococcus faecalis (ATCC 29212),[2],2 µg/mL
same,MIC Enterococcus faecalis (GC 2242),[2]; strain GC 2242,2 µg/mL
same,MIC Enterococcus faecium (GC 2243),[2],2 µg/mL
same,MIC Enterococcus faecalis (GC 2691),[2]; strain GC 2691,2 µg/mL
same,MIC Enterococcus faecalis (GC 3059),[2]; strain GC 3059,2 µg/mL
same,MIC Enterococcus faecalis (GC 4552),[2],2 µg/mL
same,MIC Enterococcus faecalis (GC 4553),[2],2 µg/mL
same,MIC Enterococcus faecalis (GC 4554),[2],2 µg/mL
same,MIC Enterococcus faecium (GC 4556),[2],2 µg/mL
same,MIC Enterococcus faecium (GC 4557),[2],2 µg/mL
same,MIC Enterococcus avium (GC 4558),[2],1 µg/mL
same,MIC Enterococcus faecalis (GC 6189),[2],2 µg/mL
same,MIC Escherichia coli (ATCC 25922),"[3]; strain ATCC 25922, 18 hours at 35° C.",32 µg/mL
same,MIC Escherichia coli (GC 4559),"[3]; strain GC 4559, 18 hours at 35° C.",32 µg/mL
same,MIC Escherichia coli (GC 4560),"[3]; strain GC 4560, 18 hours at 35° C.",2 µg/mL
same,MIC Staphylococcus aureus (GC 1131),[4]; inoculum 5×10^5 CFU/mL,1 µg/mL
same,MIC Staphylococcus aureus (ATCC 29213),[4]; strain ATCC 29213,1 µg/mL
same,MIC Staphylococcus aureus (GC 1131),[4],1 µg/mL
same,MIC Staphylococcus aureus (GC 3051),[4]; strain GC 3051,1 µg/mL
same,MIC Staphylococcus aureus (GC 3053),[4]; strain GC 3053,2 µg/mL
same,MIC Staphylococcus aureus (GC 4541),[4]; strain GC 4541,1 µg/mL
same,MIC Staphylococcus aureus (GC 4542),[4]; strain GC 4542,1 µg/mL
same,MIC Staphylococcus aureus-SMITH (GC 4543),[4]; strain GC 4543,1 µg/mL
same,MIC Staphylococcus aureus (GC 4544),[4]; strain GC 4544,2 µg/mL
same,MIC Staphylococcus aureus (GC 4545),[4]; strain GC 4545,1 µg/mL
same,MIC Staphylococcus haemolyticus (GC 4546),[4]; strain GC 4546,1 µg/mL
same,MIC Coagulase Negative Staphylococcus (GC 4547),[4]; strain GC 4547,2 µg/mL
same,MIC Coagulase Negative Staphylococcus (GC 4548),[4]; strain GC 4548,0.5 µg/mL
same,MIC Coagulase Negative Staphylococcus (GC 4549),[4]; strain GC 4549,0.25 µg/mL
same,MIC Coagulase Negative Staphylococcus (GC 4551),[4]; strain GC 4551,2 µg/mL
same,MIC Coagulase Negative Staphylococcus (GC 6257),[4]; strain GC 6257,1 µg/mL
same,MIC Staphylococcus aureus-SMITH (GC 4543),[4]; strain SMITH GC 4543,1 µg/mL
same,MIC Streptococcus agalactiae (GC 4564),[5]; Streptococcus agalactiae (GC 4564),<0.06 µg/mL
same,MIC Streptococcus pneumoniae (ATCC 6301),[5]; Streptococcus pneumoniae (ATCC 6301),<0.06 µg/mL
same,MIC Streptococcus pneumoniae (GC 1894),[5]; Streptococcus pneumoniae (GC 1894),<0.06 µg/mL
same,MIC Streptococcus pneumoniae (GC 4565),[5]; Streptococcus pneumoniae (GC 4565),<0.06 µg/mL
same,MIC Streptococcus pyogenes (GC 4563),[5]; Streptococcus pyogenes (GC 4563),<0.06 µg/mL
same,MIC Streptococcus pneumoniae (ATCC 6301),[5]; strain ATCC 6301,<0.06 µg/mL
same,MIC Streptococcus pneumoniae (GC 1894),[5]; strain GC 1894,<0.06 µg/mL
same,MIC Streptococcus pyogenes (GC 4563),[5]; strain GC 4563,<0.06 µg/mL
same,MIC Streptococcus agalactiae (GC 4564),[5]; strain GC 4564,<0.06 µg/mL
same,MIC Streptococcus pneumoniae (GC 4565),[5]; strain GC 4565,<0.06 µg/mL
